Results on one compound are retold here after paper PMC12363935, “Unc-51 Like Kinase 3 (ULK3) is essential for autophagy and cell survival in multiple myeloma” (Research Square, 2025).

One data set concerns ULK3 KO U266 MM cells. Nature of the data set: ULK3 KO U266 in vivo model. Also noted: species or system mice. Conditions: ULK3 KO U266, 10 mg/kg/day subcutaneously, M-F from day 20. The text has this: (§1) Supplementary Figure 7. ULK3 ablation suppresses MM cell growth. A. Immunoblotting for ULK3 expression in parental, NTC CTRL and ULK3 KO U266 cells. Of note, NTC CTRL and ULK3 KO were used for the in vivo ULK3 KO model. Densitometric quantification values are annotated on the blot. B. Mice (n = 20/group) were tail vein injected […]
(§2) with 1 x106 NTC CTRL and ULK3 KO U266 MM cells. […]
(§3) onset of the disease compared to NTC CTRL . (C) Representative confocal microscopy images of formalin fixed, paraffin embedded tumors (5-micron sections), stained for human mitochondria (hMITO) as a readout of MM cells colocalization. Alexa Fluor Plus 488 goat anti-mouse were used as secondary antibody. (D) MTS showing the inhibitory profile of MA9060 on NTC CTRL and ULK3 KO for U266 cell line. Treatment with MA9060 (0-100 uM) for 48h show reduced activity of MA9060 in ULK3 KO cell lines. E. Mice were divided respectively in two groups, vehicle control (n = 10, β-HCD Captisol) or MA9-060 (n = 10). Treatment started at day 20 (M-F, 10 mg/kg/day subcutaneously). MA9-060 treatment improves overall survival in the NTC CTRL arm (median 41 days post-tumor […]
(§4) 38 For MA9 therapy efficacy, mice were treated with vehicle (n=10) or MA9 (10 mg/kg/day, 39 subcutaneously, M-F from day 20; n=10) (Supplementary Fig. 7E, F). Survival and toxicity 40 (weight, clinical signs) was monitored. […]

In data set [1] the test system is autophagy proteins in U266 MM cells. Nature of the data set: Immunoblot densitometry of autophagy proteins. The class given is cell-based, Human. Particulars: U266, 6h, MA9-060 1μM, JQ1 10μM, CQ 1μM. The protocol: Figure 3. Anti-myeloma activity of the MA9–060 autophagy inhibitor. A. Chemical structure of the autophagy inhibitor MA9–060. […] Chloroquine (CQ) (1μM) served as a positive control for autophagy inhibition. C. […] Hoechst 33342 dye appears here as the nuclear blue staining (Multiple comparisons ANOVA, p <0.0001).
157 5872S). Protein concentration was quantified by Thermo Scientific™ Pierce™ BCA™ Protein
30 μg protein was loaded to 10%-15% gel and ran at
159 100V for 2 hours. Later protein was transferred to PVDF membrane and blocked with 5% skimmed
160 milk in TBST (10 mM Tris/HCl pH8.0, 0.12M NaCl, 0.1% Tween 20) containing 5% BSA [8] for
163 at 4°C overnight. Membranes were washed 3 times,10 minutes with TBS. Then incubated with
164 appropriate secondary antibodies at 1:1000 ratio in skimmed milk or 2% BSA. The membranes
165 were washed again 3 times for 10 minutes with TBST. ECL reagents were added to the membrane
166 and blot was developed by LICOR Imaging Studio.
167 All immunoblotting assays were performed at least in three replicates and representative
168 images are shown. Commercially available antibodies and their dilutions are listed in
169 Supplementary Table 5. Immunoblotting images were acquired and quantified using LICOR
170 Image Studio Quant software. […]

The next data set concerns NTC CTRL U266 MM cells. The data set is described as follows: NTC CTRL U266 in vivo model. Conditions: 10 mg/kg/day subcutaneously.
Source text: as §1, §2, §3, §4

Regarding `Cc1cnc(Nc2ccc(C3CCN(C)CC3)c(F)c2)nc1Nc1ccc(Cl)c(NS(=O)(=O)C(C)(C)C)c1` [MA9060], the median overall survival amounted to 87 days in the data set on ULK3 KO U266 MM cells and 41 days in the data set on NTC CTRL U266 MM cells (NTC CTRL arm, M-F from day 20). Moreover, the LC3II densitometry in data set [1] (CTRL 0.34) came out at 0.10. Also, the LC3I densitometry in data set [1] (CTRL 3.01) stood at 1.78. The ULK1 densitometry in data set [1] (CTRL 7.21) stood at 2.44. The same compound showed a ULK3 densitometry in data set [1] (CTRL 15.17) of 3.33. Further, the “toxicity (weight loss <20%, ruffled hair)” value in the data set on NTC CTRL U266 MM cells was “did not show any signs of toxicity”.
